Values of other authors, collected in patent US20240315991A1, “USES OF HNF4 ALPHA AGONISTS” (Sanford Burnham Prebys Medical Discovery Institute, priority 2023, published 2024).

Tests used:
[1] = target: T1, HNF4α (Homo sapiens, UniProt P41235); settings: GFP expressed under the control of the human insulin promoter; cited from earlier work
T1 sequence (P41235 1-474): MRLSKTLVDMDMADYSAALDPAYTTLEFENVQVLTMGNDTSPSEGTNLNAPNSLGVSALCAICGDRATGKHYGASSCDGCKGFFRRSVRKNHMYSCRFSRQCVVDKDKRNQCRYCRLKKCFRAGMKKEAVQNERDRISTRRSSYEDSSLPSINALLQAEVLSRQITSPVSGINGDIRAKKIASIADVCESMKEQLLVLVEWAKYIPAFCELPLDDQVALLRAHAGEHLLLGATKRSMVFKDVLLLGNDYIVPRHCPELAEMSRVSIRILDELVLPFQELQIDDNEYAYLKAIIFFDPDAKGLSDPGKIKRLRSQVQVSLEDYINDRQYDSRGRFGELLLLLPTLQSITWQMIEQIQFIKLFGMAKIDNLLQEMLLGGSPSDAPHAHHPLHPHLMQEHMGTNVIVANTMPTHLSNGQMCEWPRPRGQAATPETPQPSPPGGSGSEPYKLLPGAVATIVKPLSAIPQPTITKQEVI

[2] = target: T1, HNF4α; settings: cited from earlier work
[3] = cited from earlier work

Structure (SMILES)	agonism of HNF4α [1]	specificity for HNF4α ([2]; HNF4α siRNA ablates their effect)	activation of HNF4α, potency compared with Alverine and Benfluorex [2]	oral bioavailability [3]
CCN(CCCc1ccccc1)CCCc1ccccc1 [Alverine]	weak agonists	–	–	–
CC(Cc1cccc(C(F)(F)F)c1)NCCOC(=O)c1ccccc1 (centres unmarked) [Benfluorex]	weak agonists	–	–	–
COc1cc(/C=C/C(=O)NCCc2ccc(O)cc2)ccc1O [NFT, N-trans feruloyltyramine, reference compound]	–	exhibit specificity for HNF4α	much more potent activators	poor
